Results from US20260014226A1, “STABLE READY TO DILUTE COMPOSITION OF CARFILZOMIB” (Kashiv BioSciences, LLC, priority 2021, published 2026).

System: diluted blood (red blood cell)
Format: cell-based, Human
Protocol: The term “hemolytic potential’ refers to ability of fluid to degrade the red blood cell and releases hemoglobin. The hemolytic potential is measured as release of hemoglobin from blood cells. • Blank, Negative and Positive Control • Blank: Diluted Blood • Negative control (Vehicle): 0.9% Sodium chloride (Normal Saline) is isotonic with Human blood. • Positive control: 5% Saponin was used as positive control Required quantity of blood was collected into K2 EDTA vials and immediately mixed well, this was used for the study within 24 hours of blood collection. The blood was maintained at ambient room temperature before use. Hemoglobin was determined using Advia 2120i heamtology system for this purpose, concentrations will be determined twice, before and after dilution. A separate aliquot of blood was centrifuged, and plasma was analyzed for hemoglobin to ensure blood was not hemolyzed before the study. Hemoglobin standard solutions was prepared using human hemoglobin. Initially, a stock solution of 180 mg hemoglobin/mL was prepared in Drabkin's reagent by dissolving the hemoglobin powder in Drabkin's reagent. The working standards of at least 6 different concentrations was prepared in Drabkin's reagent and was read in plate reader at 540 nm wavelength. […]

Saponin [Positive control]
% Hemolysis: 100.00%
